Molecules are shown by their SMILES.

In this experiment the test system is Wnt/β-catenin pathway. Kind of experiment: Wnt reporter assay (TCF-Luciferase, Firefly) in DBTRG-05MG cells. Type of experiment: cell-based. The following applies: Homo sapiens, 24 hours after compound addition. The procedure: TCF-Luciferase: Three copies of a 4×TCF responsive elements were cloned into the pcDNA3.1/Zeo(+) vector (Invitrogen) after deletion of the constitutive CMV promoter and the insertion of the Firefly Luciferase from Promega (phFL-TK) to measure the activity of the Wnt/β-catenin pathway. The resulting plasmid was sequenced for quality control.
Cells were grown in 20 μg/ml Zeocin and 20 μg/ml Zeocin plus 30 μg/ml Hygromicin respectively. The cells were plated at a density of 6500 cells/well in poly-D-lysine pre-treated 96 well-plates.
IC50 determination: 36 hours after plating cells were incubated with 8-points (60 μM-40 μM-20 μM-10 μM-5 μM-1.66 μM-0.55 μM-0.185 μM) dilutions compound (0.6% DMSO (v/v)). Each compound was tested in triplicate in single plate. Luciferase detection was done with Dual-Luciferase Reporter Assay System (Promega). 24 hours after compound addition, media was removed and 30 μl of 1× lysis buffer was added to each well for 30 minutes. To each well 45 μl of Dual-Glo Luciferase reagent (Promega) were added and after 1 second delay Luciferase was detected for 1 second using Mithras LB940 instrument. After Firefly luciferase quantification 45 μl of Dual Stop & Glo reagent (Promega) were added to each well and Firefly Renilla was detected using the same parameters described before.
Data were expressed as % of control for Firefly and Renilla luciferase independently; values were calculated using XLFit version 4.2, with a four parameters sigmoid function (XLFit model 205).
(Reporter assays use an easily measured gene product as a stand-in for the process of interest.)

Usually IC50 stands for the concentration that gives 50% inhibition. A high value points to weaker potency. In turn, `COc1ccc2c(c1)c(=O)n(C[C@H]1CC[C@H](C(=O)N3CCN(CC4CC4)C(=O)C3)CC1)c(=O)n2C` [Example 132] displayed a half-maximal inhibitory concentration (IC50) of 0.3 to 30 µM.

Compound `COCC(=O)N1CCN(C(=O)[C@H]2CC[C@H](Cn3c(=O)[nH]c4ccc(OC)cc4c3=O)CC2)[C@@H](C)C1` [Example 133] displayed a concentration for half-maximal inhibition (IC50) of 0.3 to 30 µM.

`COc1ccc2[nH]c(=O)n(C[C@H]3CC[C@H](C(=O)N4CCN(C(=O)C5CC5)CC4)CC3)c2c1` [Example 134]: the half-inhibitory concentration (IC50) is 0.3 to 30 µM.

In turn, `COCCC(=O)N1CCN(C(=O)[C@H]2CC[C@H](Cn3c(=O)c4cc(OC)ccc4n(C)c3=O)CC2)CC1` [Example 137] came in with an IC50 of 0.3 to 30 µM.

Turning to `COc1ccc2c(c1)c(=O)n(C[C@H]1CC[C@H](C(=O)N3CCN(C(=O)C4CC4)C[C@H]3C)CC1)c(=O)n2C` [Example 138], the 50% inhibitory concentration (IC50) fell in the range of 0.3 to 30 µM.

In turn, `COc1ccc2[nH]c(=O)n(C[C@H]3CC[C@H](C(=O)N4CCN(c5ccncc5)CC4)CC3)c(=O)c2c1` [Example 139] yielded an IC50 of 0.3 to 30 µM.

As for `COc1ccc2[nH]c(=O)n(C[C@H]3CC[C@H](C(=O)N4CCN(c5cccc(OC)n5)CC4)CC3)c(=O)c2c1` [Example 140], the half-inhibitory concentration (IC50) is 0.3 to 30 µM.

`COc1ccc2c(c1)c(=O)n(C[C@H]1CC[C@H](C(=O)N3CCN(C(=O)COC(C)C)CC3)CC1)c(=O)n2C` [Example 141] displayed an IC50 of 0.3 to 30 µM.

`COc1ccc2c(c1)c(=O)n(C[C@H]1CC[C@H](C(=O)N3CCN(C(=O)C(C)OC)CC3)CC1)c(=O)n2C` (stereo partly drawn) [Example 142] yielded a half-inhibitory concentration (IC50) of 0.3 to 30 µM.

`Cc1ccc2[nH]c(=O)n(C[C@H]3CC[C@H](C(=O)N4CCN(C(=O)C(C)C)CC4)CC3)c(=O)c2c1` [Example 143]: the IC50 was in the range of 0.3 to 30 µM.

Regarding `COCC(=O)N1CCN(C(=O)[C@H]2CC[C@H](Cn3c(=O)c4cc(OC)ccc4n(C)c3=O)CC2)[C@H](C)C1` [Example 144], the IC50 lay in the range of 0.3 to 30 µM.

The compound `COCC(=O)N1CCN(C(=O)[C@H]2CC[C@H](Cn3c(=O)c4cc(OC)ccc4n(C)c3=O)CC2)[C@@H](C)C1` [Example 145] gave an IC50 of 0.3 to 30 µM.

`COc1ccc2c(c1)c(=O)n(C[C@H]1CC[C@H](C(=O)N3CCN(C(=O)c4ccncn4)CC3)CC1)c(=O)n2C` [Example 147] registered an IC50 of 0.3 to 30 µM.

With `COc1ccc2c(c1)c(=O)n(C[C@H]1CC[C@H](C(=O)Nc3ccc(C)nc3)CC1)c(=O)n2C` [Example 148], the IC50 fell in the range of 0.3 to 30 µM.

`COCC(=O)N1CCN(C(=O)[C@H]2CC[C@H](Cn3c(=O)c4cc(OC)ccc4n(C)c3=O)CC2)C[C@@H]1C` [Example 149] showed a half-maximal inhibitory concentration (IC50) of 0.3 to 30 µM.

The compound `COc1ccc2c(c1)c(=O)n(C[C@H]1CC[C@H](C(=O)N3CCN(C(=O)C4CC4)[C@H](C)C3)CC1)c(=O)n2C` [Example 150] yielded an IC50 of 0.3 to 30 µM.

For `COCC(=O)N1CCN(C(=O)[C@H]2CC[C@H](Cn3c(=O)c4cc(OC)ccc4n(C)c3=O)CC2)C[C@H]1C` [Example 151], the IC50 lay in the range of 0.3 to 30 µM.

Take `COc1ccc2[nH]c(=O)n(C[C@H]3CC[C@H](C(=O)N4CCN(C(=O)C5CC5)[C@@H](C)C4)CC3)c(=O)c2c1` [Example 152]: the IC50 was in the range of 0.3 to 30 µM.

For the compound `COc1ccc2c(c1)c(=O)n(C[C@H]1CC[C@H](C(=O)Nc3cccnc3)CC1)c(=O)n2C` [Example 153], the IC50 fell in the range of 0.3 to 30 µM.

`COc1ccc2c(c1)c(=O)n(C[C@H]1CC[C@H](C(=O)Nc3ccc(OC)nc3)CC1)c(=O)n2C` [Example 154] returned a half-maximal inhibitory concentration (IC50) of 0.3 to 30 µM.

Turning to `COc1ccc2c(c1)c(=O)n(C[C@H]1CC[C@H](C(=O)Nc3ccc(OC)nc3OC)CC1)c(=O)n2C` [Example 155], the concentration for half-maximal inhibition (IC50) was 0.3 to 30 µM.

With `COc1ccc2c(c1)c(=O)n(C[C@H]1CC[C@H](C(=O)N3CCN(C(=O)C4CC4)[C@@H](C)C3)CC1)c(=O)n2C` [Example 156], the half-maximal inhibitory concentration (IC50) is 0.3 to 30 µM.

In the case of `COc1ccc2[nH]c(=O)n(C[C@H]3CC[C@H](C(=O)N4CCN(C(=O)C5CC5)[C@H](C)C4)CC3)c(=O)c2c1` [Example 157], the IC50 lay in the range of 0.3 to 30 µM.

Regarding `COc1ccc2[nH]c(=O)n(C[C@H]3CC[C@H](C(=O)N4CCN(C(=O)C5CC5)CC4)CC3)c2n1` [Example 158], the IC50 lay within 0.3 to 30 µM.

For `COCC(=O)N1CCN(C(=O)[C@H]2CC[C@H](Cn3c(=O)[nH]c4ccc(OC)cc4c3=O)CC2)C[C@@H]1C` [Example 159], the half-inhibitory concentration (IC50) lay within 0.3 to 30 µM.

In the case of `COc1ccc2[nH]c(=O)n(C[C@H]3CC[C@H](C(=O)N4CCN(C)C(=O)C4)CC3)c2c1` [Example 160], the IC50 is 0.3 to 30 µM.

`CCOc1ccc2[nH]c(=O)n(C[C@H]3CC[C@H](C(=O)N4CCN(C(=O)C5CC5)CC4)CC3)c(=O)c2c1` [Example 161] displayed an IC50 of 0.3 to 30 µM.

`CCOc1ccc2[nH]c(=O)n(C[C@H]3CC[C@H](C(=O)N4CCN(C(=O)C(C)C)CC4)CC3)c(=O)c2c1` [Example 162]: the IC50 lay within 0.3 to 30 µM.

Compound `Cn1c(=O)n(C[C@H]2CC[C@H](C(=O)N3CCN(C(=O)C4CC4)CC3)CC2)c2cc(C(F)(F)F)ccc21` [Example 163] showed a half-maximal inhibitory concentration (IC50) of 0.3 to 30 µM.

Turning to `Cn1c(=O)n(C[C@H]2CC[C@H](C(=O)N3CCOCC3)CC2)c2c(Cl)cccc21` [Example 164], the half-maximal inhibitory concentration (IC50) is 0.3 to 30 µM.

The compound `COc1ccc2c(c1)c(=O)n(C[C@H]1CC[C@H](C(=O)Nc3ccncc3)CC1)c(=O)n2C` [Example 165] displayed an IC50 of 0.3 to 30 µM.

Turning to `COc1ccc2c(n1)n(C[C@H]1CC[C@H](C(=O)N3CCN(C(=O)C4CC4)CC3)CC1)c(=O)n2C` [Example 166], the IC50 is 0.3 to 30 µM.

With `COc1ccc2c(n1)n(C[C@H]1CC[C@H](C(=O)N3CCOCC3)CC1)c(=O)n2C` [Example 167], the IC50 lay within 0.3 to 30 µM.

For `Cn1c(=O)n(C[C@H]2CC[C@H](C(=O)N3CCN(C(=O)C4CC4)CC3)CC2)c2c(Cl)cccc21` [Example 168], the 50% inhibitory concentration (IC50) was in the range of 0.3 to 30 µM.

Compound `CN1CCN(C(=O)[C@H]2CC[C@H](Cn3c(=O)n(C)c4ccc(C(F)(F)F)cc43)CC2)CC1=O` [Example 170] returned an IC50 of 0.3 to 30 µM.

Compound `COc1ccc2c(c1)c(=O)n(C[C@H]1CC[C@H](C(=O)N3CCN(C(=O)n4ccnc4)CC3)CC1)c(=O)n2C` [Example 171] registered a half-maximal inhibitory concentration (IC50) of 0.3 to 30 µM.

With `COc1ccc2c(c1)c(=O)n(C[C@H]1CC[C@H](C(=O)Nc3ccncc3C)CC1)c(=O)n2C` [Example 172], the IC50 was in the range of 0.3 to 30 µM.

Regarding `COc1ccc2c(c1)c(=O)n(C[C@H]1CC[C@H](C(=O)Nc3ccc(F)nc3)CC1)c(=O)n2C` [Example 173], the IC50 fell in the range of 0.3 to 30 µM.

In the case of `COc1ccc2c(c1)c(=O)n(C[C@H]1CC[C@H](C(=O)Nc3cncc(F)c3)CC1)c(=O)n2C` [Example 174], the half-inhibitory concentration (IC50) is 0.3 to 30 µM.

The compound `CCOC(=O)N1CCN(C(=O)[C@H]2CC[C@H](Cn3c(=O)c4cc(OC)ccc4n(C)c3=O)CC2)CC1` [Example 176] registered a 50% inhibitory concentration (IC50) of 0.3 to 30 µM.

In turn, `COc1ccc2c(c1)c(=O)n(C[C@H]1CC[C@H](C(=O)Nc3ccnc(OC)c3)CC1)c(=O)n2C` [Example 177] had a concentration for half-maximal inhibition (IC50) of 0.3 to 30 µM.

For `COc1cccc2c1CN(C[C@H]1CC[C@H](C(=O)N3CCN(c4nccs4)CC3)CC1)C(=O)N2` [Example 178], the 50% inhibitory concentration (IC50) lay in the range of 0.3 to 30 µM.

`COc1ccc2c(c1)c(=O)n(C[C@H]1CC[C@H](C(=O)N3CCN(C(C)=O)CC3)CC1)c(=O)n2C(F)F` [Example 179] returned a 50% inhibitory concentration (IC50) of 0.3 to 30 µM.

The compound `CC(=O)N1CCN(C(=O)[C@H]2CC[C@H](Cn3c(=O)n(C)c4ccc(Cl)cc43)CC2)CC1` [Example 180] gave a concentration for half-maximal inhibition (IC50) of 0.3 to 30 µM.

For `Cn1c(=O)n(C[C@H]2CC[C@H](C(=O)N3CCOCC3)CC2)c2cc(Cl)ccc21` [Example 181], the half-inhibitory concentration (IC50) was 0.3 to 30 µM.

The values above are taken from patent US8865704B2, “Wnt pathway antagonists” (Siena Biotech S.p.A., priority 2009, dated 2014).
